EP0358047A2, “Method of controlling phytopathogenic fungi” (AMERICAN CYANAMID COMPANY, priority 1988, dated 1990)
Read-outs that look alike come from different tables or passages of the source.

Columns and labels:
Experiment in all cases: In vitro fungicide screen: inhibition of mycelial growth on agar medium
Assay type in all cases: cell-based
[1] = tested on: Pseudocercosporella herpotrichoides (Pseudo); details: 7-10 days, room temperature
Procedure: (§1) Severe soilborne diseases such as damping off, seedling blight, crown rot, and root rot, among others are caused by certain plant pathogenic fungi. An in vitro assay is conducted to determine whether test compounds will inhibit the mycelial growth of said fungi. Pathogens, the method of testing, and the rating system used are reported below.
(§2) Assay fungi include the following plant pathogens: • Botrytis cinerea (Botry) • Pseudocerosporella herpotrichoides (Pseudo) • Pythium ultimum (Pyth) • Rhizoctonia solani (Rhiz)
(§3) The test compound (2.5-10 mg) is dissolved in 0.5 mL acetone, diluted with 4.5 mL sterile deionized water, and mixed with 95 mL of an autoclaved and partially cooled, chemically defined agar medium in a 250 mL flask. Test compounds that are insoluble are prepared as a fine suspension ultrasonically, or with a glass tissue grinder, before addition to the medium. The chemically defined medium used in these experiments is as follows: • 15 g of sucrose, 0.5 g NH4Cl, 0.5 g KNO3, 0.5 g KH2PO4, 0.5 g K2HP04, 0.25 g MgSO4.7H2O, 50 mg CaC)2.6H20, 0.75 mg FeSO4.7H2O, 0.22 mg MnSO4.5H2O, 0.6 mg CuSO4.5H2O, 7.5 mg ZnC12, 2.5 mg thiamine, 60 µg(NH4)6Mo7O24.4H2O, 90 u.g H3BO3, 5 ug biotin, 20 g agar, and water to 1L.
(§4) The mixture of test compound and agar medium as described above is poured into several 100 mm x 15 mm sterile plastic plates and allowed to solidify. The surface of each plate is inoculated with a single disc of mycelium and agar cut with an 8 mm diameter cork borer from actively growing cultures of assay fungi on a chemically defined agar medium. The plates are incubated at room temperature. Growth inhibition is determined when the mycelial growth on unamended control media has reached the edge of the petri plates. The time interval varies depending on the growth rate of the fungus; two days for Pythium ultimum (Pyth) and Rhizoctonia solani (Rhiz), five days for Botrytis cinerea (Botry), and 7-10 days for Pseudocercosporella herpotrichoides (Pseudo). Each colony diameter is measured and compared with the untreated control and the percent inhibition is calculated as follows: [formula] Each test includes a solvent blank consisting of the formulation without a test compound in addition to the untreated control.

[2] = tested on: Pythium ultimum (Pyth); details: two days, room temperature; for inhibition at 1 ppm: Rate 1 ppm in agar medium
Procedure: as §1, §2, §3, §4

[3] = tested on: Botrytis cinerea (Botry); details: five days, room temperature
Procedure: as §1, §2, §3, §4

[4] = tested on: Rhizoctonia solani (Rhiz); details: for inhibition at 10 ppm: read-out: % Growth Inhibition Rhiz
Procedure: as §1, §2, §3, §4

[5] = Oculimacula yallundae, Rate 100 ppm in agar medium
[6] = Globisporangium ultimum, 48 h, Rate 100 ppm in agar medium
[7] = Botrytis cinerea, 120 h, Rate 100 ppm in agar medium
[8] = Rhizoctonia solani, 48 h, Rate 100 ppm in agar medium, two days, room temperature
[9] = Rhizoctonia solani, 48 h, Rate 10 ppm in agar medium, two days, room temperature

`N#Cc1c(-c2ccc(Cl)cc2)[nH]c(Cl)c1Cl` [4,5-Dichloro-2-(p-chlorophenyl)pyrrole-3-carbonitrile] was tested. Which inhibition at 25 ppm ([1]; Oculimacula yallundae, Rate 25 ppm in agar medium) did it give?
The inhibition at 25 ppm was 0%.

And the inhibition at 50 ppm ([1]; Oculimacula yallundae, Rate 50 ppm in agar medium)?
Its inhibition at 50 ppm is 40%.

What about the inhibition at 100 ppm [1, 5] of the same compound?
Its inhibition at 100 ppm is 42.8%.

And the inhibition at 25 ppm ([2]; Globisporangium ultimum, 48 h, Rate 25 ppm in agar medium)?
The inhibition at 25 ppm was 34.2%.

What about the inhibition at 50 ppm ([2]; Globisporangium ultimum, 48 h, Rate 50 ppm in agar medium) of the same compound?
The inhibition at 50 ppm was 44.7%.

And the inhibition at 100 ppm [2, 6]?
The inhibition at 100 ppm was 45%.

And the inhibition at 25 ppm ([3]; Botrytis cinerea, 120 h, Rate 25 ppm in agar medium)?
Its inhibition at 25 ppm is 82.1%.

What about the inhibition at 50 ppm ([3]; Botrytis cinerea, 120 h, Rate 50 ppm in agar medium) of the same compound?
The inhibition at 50 ppm was 71.4%.

And the inhibition at 100 ppm [3, 7]?
Its inhibition at 100 ppm is 66.7%.

What about the inhibition at 25 ppm ([4]; Rhizoctonia solani, 48 h, Rate 25 ppm in agar medium, two days, room temperature) of the same compound?
The inhibition at 25 ppm was 73.3%.

What about the inhibition at 50 ppm ([4]; Rhizoctonia solani, 48 h, Rate 50 ppm in agar medium, two days, room temperature) of the same compound?
Its inhibition at 50 ppm is 73.3%.

What about the inhibition at 100 ppm [4, 8] of the same compound?
The inhibition at 100 ppm was 64.7%.

What does the source list for `N#Cc1cc[nH]c1-c1ccc(Cl)cc1` [2(p-Chlorophenyl)-pyrrole-3-carbonitrile]?
inhibition at 100 ppm [1, 5]: 86%; inhibition at 100 ppm [2, 6]: 95%; inhibition at 100 ppm [3, 7]: 68%; inhibition at 100 ppm [4, 8]: 61%

How did the inhibition at 100 ppm [1, 5] turn out when `O=[N+]([O-])c1c(-c2ccc(Cl)cc2)[nH]c(Cl)c1Cl` [2,3-Dichloro-5-(p-chlorophenyl) -4-nitropyrrole] was run?
The inhibition at 100 ppm was 50%.

And the inhibition at 100 ppm [2, 6]?
The inhibition at 100 ppm was 92.1%.

What about the inhibition at 100 ppm [3, 7] of the same compound?
The inhibition at 100 ppm was 96.3%.

And the inhibition at 100 ppm [4, 8]?
The inhibition at 100 ppm was 96%.

`O=[N+]([O-])c1c(-c2ccccc2)[nH]c(Cl)c1Cl` [2,3-Dichloro-4-nitro-5-phenyl-pyrrole, 2,3-Dichloro-4-nitro-5-phenylpyrrole] was tested. Which inhibition at 100 ppm [1, 5] did it give?
The inhibition at 100 ppm was 100%.

What about the inhibition at 100 ppm [2, 6] of the same compound?
Its inhibition at 100 ppm is 100%.

What about the inhibition at 100 ppm [3, 7] of the same compound?
The inhibition at 100 ppm was 97%.

What about the inhibition at 100 ppm [4, 8] of the same compound?
The inhibition at 100 ppm was 81%.

With `N#Cc1cc([N+](=O)[O-])c(-c2ccc(Cl)c(Cl)c2)[nH]1` [5-(3,4-Dichlorophenyl)-4-nitropyrrole-2-carbonitrile] as the compound, how does the inhibition at 1 ppm ([2]; Globisporangium ultimum, 48 h) read?
The inhibition at 1 ppm was 100%.

And the inhibition at 10 ppm [4, 9]?
The inhibition at 10 ppm was 100%.

`N#Cc1c(-c2ccc(Cl)cc2)[nH]c(C(F)(F)F)c1Br` [4-Bromo-2-(p-chlorophenyl)-5-(trifluoromethyl)pyrrole-3-carbonitrile] was tested. Which inhibition at 10 ppm ([4]; Rhizoctonia solani, 48 h) did it give?
Its inhibition at 10 ppm is 100%.

What does the source list for `N#Cc1cc[nH]c1-c1cccc(Cl)c1` [2-(m-Chloro-phenyl)pyrrole-3-carbonitrile]?
inhibition at 100 ppm [1, 5]: 67%; inhibition at 100 ppm [2, 6]: 82%; inhibition at 100 ppm [3, 7]: 74%; inhibition at 100 ppm [4, 8]: 95%

With `O=[N+]([O-])c1c(-c2ccccc2)[nH]c(Br)c1Br` [2,3-Dibromo-4-nitro-5-phenyl-pyrrole] as the compound, how does the inhibition at 100 ppm [1, 5] read?
The inhibition at 100 ppm was 71%.

What about the inhibition at 100 ppm [2, 6] of the same compound?
Its inhibition at 100 ppm is 97%.

What about the inhibition at 100 ppm [3, 7] of the same compound?
The inhibition at 100 ppm was 87%.

And the inhibition at 100 ppm [4, 8]?
Its inhibition at 100 ppm is 63%.

With `N#Cc1c(-c2ccccc2Cl)[nH]c(Cl)c1Cl` [4,5 Dichloro-2-(o-chlorophenyl) pyrrole-3-carbo-nitrile] as the compound, how does the “% Growth Inhibition Pseudo” value ([1]; Rate 100 ppm in agar medium) read?
The value was 16.7%.

And the “% Growth Inhibition Pyth” value ([2]; Rate 100 ppm in agar medium)?
Its value is 0%.

And the “% Growth Inhibition Botry” value ([3]; Rate 100 ppm in agar medium)?
The value was 3.1%.

What about the “% Growth Inhibition Rhiz” value ([4]; Rate 100 ppm in agar medium, two days, room temperature) of the same compound?
The value was 52.6%.

Which inhibition at 100 ppm [1, 5] does the source give for `N#Cc1cc[nH]c1-c1ccccc1` [2-Phenylpyrrole-3-carbonitrile, 2-Phenylpyrrole-3-carbonitrile] here?
The inhibition at 100 ppm was 100%.

And the inhibition at 100 ppm [2, 6]?
The inhibition at 100 ppm was 100%.

What about the inhibition at 100 ppm [3, 7] of the same compound?
Its inhibition at 100 ppm is 95%.

And the inhibition at 100 ppm [4, 8]?
The inhibition at 100 ppm was 89%.

For `O=[N+]([O-])c1c(Br)[nH]c(Br)c1-c1ccccc1` [2,5-dibromo-3-nitro-4-phenyl-pyrrole], which inhibition at 10 ppm ([1]; Oculimacula yallundae, Rate 10 ppm in agar medium) is on record?
Its inhibition at 10 ppm is 100%.

What about the inhibition at 1 ppm ([2]; Globisporangium ultimum, 48 h) of the same compound?
The inhibition at 1 ppm was 100%.

And the inhibition at 10 ppm [4, 9]?
The inhibition at 10 ppm was 100%.

Which results are given for `O=[N+]([O-])c1c(-c2ccc(Br)cc2)[nH]c(Cl)c1Cl` [2-(p-Bromo-phenyl)-4,5-dichloro-3-nitropyrrole]?
inhibition at 100 ppm [1, 5]: 83%; inhibition at 100 ppm [2, 6]: 68%; inhibition at 100 ppm [3, 7]: 89%; inhibition at 100 ppm [4, 8]: 92%

`O=[N+]([O-])c1c(-c2ccc(C(F)(F)F)cc2)[nH]c(Cl)c1Cl` [2,3-Dichloro-4-nitro-5-(α,α,α-trifluoro-p-tolyl)-pyrrole] was tested. Which inhibition at 100 ppm [1, 5] did it give?
The inhibition at 100 ppm was 100%.

What about the inhibition at 100 ppm [2, 6] of the same compound?
The inhibition at 100 ppm was 100%.

What about the inhibition at 100 ppm [3, 7] of the same compound?
The inhibition at 100 ppm was 100%.

And the inhibition at 100 ppm [4, 8]?
The inhibition at 100 ppm was 100%.
